{"source": "patent US20190142971A1", "about": "“FORMULATION AND DELIVERY OF MODIFIED NUCLEOSIDE, NUCLEOTIDE, AND NUCLEIC ACID COMPOSITIONS” (ModernaTX, Inc., priority 2013, published 2019)", "format_in_all_cases": "in vivo", "key": {"Balb-C mice [1]": {"system": "Balb-C mice", "test": "Example 79: fibrin sealant (Tisseel) with luciferase mRNA SC in mice, total flux (Tables 119, 120)", "settings": "subcutaneous", "protocol": "The thrombin and fibrinogen components were loaded separately into a dual barreled syringe. […] The injection of fibrinogen and thrombin was done simultaneously using the dual-barreled syringe. The subcutaneous injection of luciferase was done 15 minutes after the fibrinogen/thrombin injection to allow the fibrin hydrogel to polymerize (Tisseel+Luciferase group). A control group of untreated mice were also evaluated. The mice were imaged at 5 hours and 24 hours. Twenty minutes prior to imaging, mice were injected intraperitoneally with a D-luciferin solution at 150 mg/kg. Animals were then anesthetized and images were acquired with an IVIS Lumina II imaging system (Perkin Elmer). Bioluminescence was measured as total flux (photons/second) of the entire mouse."}, "Balb-C mice [2]": {"system": "Balb-C mice", "test": "Example 108: luciferase mRNA IM with electroporation, total flux (Tables 174-176)", "settings": "PBS, IM 2.5 mg/kg", "protocol": "The mice of Group 2 were treated with electroporation (EP) using the […]™ instrument (Harvard Apparatus/BTX®, Holliston, Mass.) immediately after administration of luciferase.\n[…] Twenty minutes prior to imaging, the mice were injected intraperitoneally with a D-luciferin solution at 150 mg/kg. Animals were then anesthetized and images were acquired with an IVIS Lumina II imaging system (Perkin Elmer). Bioluminescence was measured as total flux (photons/second) of the entire mouse."}, "C57/BL6 mice": {"system": "C57/BL6 mice", "test": "Example 47: luciferase mRNA IM, SC, IV in mice, bioluminescence imaging (Tables 76-78)", "protocol": "Modified RNA was delivered to C57/BL6 mice intramuscularly, subcutaneously, or intravenously to evaluate the bio-distribution of modified RNA using luciferase. A formulation buffer used with all delivery methods contained 150 mM sodium chloride, 2 mM calcium chloride, 2 mM Na+-phosphate which included 1.4 mM monobasic sodium phosphate and 0.6 mM of dibasic sodium phosphate, and 0.5 mM ethylenediaminetetraacetic acid (EDTA) was adjusted using sodium hydroxide to reach a final pH of 6.5 before being filtered and sterilized. A 1× concentration was used as the delivery buffer. To create the lipoplexed solution delivered to the mice, in one vial […] was equilibrated for 10 minutes at room temperature in the delivery buffer and in a second vial 10 μl RNAiMAX™ was equilibrated for 10 minutes at room temperature in the delivery buffer. After equilibrium, the vials were combined and delivery buffer was added to reach a final volume of 100 μl which was then incubated for 20 minutes at room temperature. Luciferin was administered by intraperitoneal injection (IP) at 150 mg/kg to each mouse prior to imaging during the plateau phase of the luciferin exposure curve which was between 15 and 30 minutes. To create luciferin, 1 g of D-luciferin potassium or sodium salt was dissolved in 66.6 ml of distilled phosphate buffer solution (DPBS), not containing Mg2+ or Ca2+, to make a 15 mg/ml solution. The solution was gently mixed and passed through a 0.2 μm syringe filter, before being purged with nitrogen, aliquoted and frozen at −80° C. while being protected from light as much as possible. The solution was thawed using a waterbath if luciferin was not dissolved, gently mixed and kept on ice on the day of dosing.\nWhole body images were taken of each mouse 2, 8 and 24 hours after dosing. Tissue images and serum was collected from each mouse 24 hours after dosing. Mice administered doses intravenously had their liver, spleen, kidneys, lungs, heart, peri-renal adipose tissue and thymus imaged. Mice administered doses intramuscularly or subcutaneously had their liver, spleen, kidneys, lungs, peri-renal adipose tissue, and muscle at the injection site. From the whole body images the bioluminescence was measured in photon per second for each route of administration and dosing regimen.\nThe bioluminescence average for the luciferase expression signals for each group at 2, 8 and 24 hours after dosing are shown in Table 76.\n(§1) Mice were subcutaneously (S.C.) administered either modified luciferase mRNA (Naked-Luc), lipoplexed modified luciferase mRNA (Lipoplex-luc), lipoplexed modified G-CSF mRNA (Lipoplex-G-CSF) or the formation buffer at a single dose of 50 μg of modified mRNA in an injection volume of 100 μl for each formulation. The bioluminescence average for the luciferase expression signals for each group at 2, 8 and 24 hours after dosing are shown in Table 77.\nas §1, with “intravenously (I.V.)” for “subcutaneously (S.C.)”, “signal in the spleen from” for “signals for”, “2” for “2, 8 and 24”, “is” for “are”, “78.” for “77.”"}}, "data": [{"substance": "Luciferase: luciferase mRNA, SEQ ID NO: 14, Cap1, fully modified with 5-methylcytosine and pseudouridine", "values": [{"measurement": "Total Flux", "setting": "Balb-C mice [1]; 5 Hours", "value": "9.94E+05", "unit": "p/s"}, {"measurement": "Total Flux", "setting": "Balb-C mice [1]; 24 Hours", "value": "7.44E+05", "unit": "p/s"}, {"measurement": "Total Flux (photons/s)", "setting": "Balb-C mice [2]; Group 1, no EP, 3 Hours", "value": "2.57E+07", "unit": "photons/s"}, {"measurement": "Total Flux (photons/s)", "setting": "Balb-C mice [2]; Group 1, no EP, 24 Hours", "value": "3.81E+07", "unit": "photons/s"}, {"measurement": "Total Flux (photons/s)", "setting": "Balb-C mice [2]; Group 1, no EP, 48 Hours", "value": "1.24E+07", "unit": "photons/s"}, {"measurement": "Total Flux (photons/s)", "setting": "Balb-C mice [2]; Group 1, no EP, 72 Hours", "value": "5.69E+06", "unit": "photons/s"}, {"measurement": "Total Flux (photons/s)", "setting": "Balb-C mice [2]; Group 1, no EP, 168 Hours", "value": "1.48E+06", "unit": "photons/s"}, {"measurement": "Total Flux (photons/s)", "setting": "Balb-C mice [2]; Group 1, no EP, 240 Hours", "value": "6.50E+05", "unit": "photons/s"}, {"measurement": "Total Flux (photons/s)", "setting": "Balb-C mice [2]; Group 1, no EP, 360 Hours", "value": "1.86E+05", "unit": "photons/s"}, {"measurement": "Total Flux (photons/s)", "setting": "Balb-C mice [2]; Group 1, no EP, 480 Hours", "value": "6.65E+04", "unit": "photons/s"}, {"measurement": "Total Flux (photons/s)", "setting": "Balb-C mice [2]; Group 2, with EP, 24 Hours", "value": "8.27E+07", "unit": "photons/s"}, {"measurement": "Total Flux (photons/s)", "setting": "Balb-C mice [2]; Group 2, with EP, 48 Hours", "value": "7.06E+07", "unit": "photons/s"}, {"measurement": "Total Flux (photons/s)", "setting": "Balb-C mice [2]; Group 2, with EP, 72 Hours", "value": "6.50E+07", "unit": "photons/s"}, {"measurement": "Total Flux (photons/s)", "setting": "Balb-C mice [2]; Group 2, with EP, 168 Hours", "value": "1.81E+07", "unit": "photons/s"}, {"measurement": "Total Flux (photons/s)", "setting": "Balb-C mice [2]; Group 2, with EP, 240 Hours", "value": "1.44E+07", "unit": "photons/s"}, {"measurement": "Total Flux (photons/s)", "setting": "Balb-C mice [2]; Group 2, with EP, 360 Hours", "value": "3.98E+06", "unit": "photons/s"}, {"measurement": "Total Flux (photons/s)", "setting": "Balb-C mice [2]; Group 2, with EP, 480 Hours", "value": "1.47E+06", "unit": "photons/s"}, {"measurement": "Total Flux (photons/s)", "setting": "Balb-C mice [2]; Group 2, with electroporation (EP), 3 Hours", "value": "1.25E+07", "unit": "photons/s"}, {"measurement": "Bioluminescence", "setting": "C57/BL6 mice; I.M., Dose 5 ug, 2 hours", "value": "224,000 photon/sec"}, {"measurement": "Bioluminescence", "setting": "C57/BL6 mice; I.M., Dose 5 ug, 8 hours", "value": "683,000 photon/sec"}, {"measurement": "Bioluminescence", "setting": "C57/BL6 mice; I.M., Dose 5 ug, 24 hours", "value": "927,000 photon/sec"}, {"measurement": "Bioluminescence", "setting": "C57/BL6 mice; I.M., Dose 50 ug, 2 hours", "value": "446,000 photon/sec"}, {"measurement": "Bioluminescence", "setting": "C57/BL6 mice; I.M., Dose 50 ug, 8 hours", "value": "766,000 photon/sec"}, {"measurement": "Bioluminescence", "setting": "C57/BL6 mice; I.M., Dose 50 ug, 24 hours", "value": "509,000 photon/sec"}, {"measurement": "Bioluminescence of the Spleen", "setting": "C57/BL6 mice; I.V., 50 μg, 2 hours after dosing", "value": "58,400 photon/sec"}, {"measurement": "Bioluminescence", "setting": "C57/BL6 mice; S.C., 50 μg, 2 hours", "value": "3,700,000 photon/sec"}, {"measurement": "Bioluminescence", "setting": "C57/BL6 mice; S.C., 50 μg, 8 hours", "value": "8,060,000 photon/sec"}, {"measurement": "Bioluminescence", "setting": "C57/BL6 mice; S.C., 50 μg, 24 hours", "value": "2,080,000 photon/sec"}]}]}
